In US20030040456A1, “Method and apparatus for cleaning article” (priority 2000, published 2003):

How the values were obtained:
[1] = solubility of the organic solvents in castor oil at 30° C.; assay type: physicochemical
Description: In the present invention, the organic solvent having high compatibility with oil is an organic solvent having high compatibility with oil adhered to an article to be cleaned, preferably an organic solvent which can be mixed with castor oil (Japanese Pharmacopoeia Act) as a typical example of the oil and standard oil in any ratio at 30° C. Preferred examples of the organic solvent having high compatibility with such oil include paraffin-based hydrocarbons such as dodecane, undecane and tridecane, naphthene-based hydrocarbons and polar organic solvents. Out of these, polar organic solvents are preferred. The polar organic solvents are preferably organic solvents having a dielectric constant of 8 or more, preferably 10 or more, such as glycol ether-based compounds, pyrrolidone-based compounds and imidazolidinone-based compounds. As the glycol ether-based compounds may be used ethylene glycol-based compounds but preferred are propylene glycol alkyl ether-based compounds.
(§1) The organic solvents and surfactants used in examples and comparative examples are given below.

[2] = solubility of the organic solvents in water at 60° C.; assay type: physicochemical
Description: The organic solvent having high compatibility with oil is preferably a polar organic solvent as described above because excellent cleanability can be obtained. The polar organic solvent is particularly preferably an organic solvent having low compatibility with water, specifically solubility in water at 60° C. of 50 vol % or less, preferably 30 vol % or less. More specifically, the polar organic solvent is preferably selected from a propylene glycol alkyl ether-based compound represented by the following formula (I): [drawing 1]
Compatibility with water means ability of mixing with water in any ratio at 60° C.
as §1

solubility in castor oil [1] | solubility in water (in words) [2] | solubility in water [2] | Molecule
infinitely soluble | infinitely soluble | – | CN1CCN(C)C1=O [DMI, 1,3-dimethyl-2-imidazolidinone]
infinitely soluble | – | 10 vol % | CCCOC(C)COC(C)CO (stereo not drawn) [DPP, dipropylene glycol monopropyl ether]
infinitely soluble | infinitely soluble | – | CN1CCCC1=O [NMP, N-methylpyrrolidone]
infinitely soluble | – | 6 vol % | CCCCOCC(C)O (stereo not drawn) [PB, propylene glycol monobutyl ether]
infinitely soluble | – | less than 1 vol % | CCCCCCCCCCCCCC [TD, n-tetradecane]
infinitely soluble | infinitely soluble | – | dipropylene glycolmonomethyl ether [DPM]
